Measured values: PMC8151276, “An Integrated Approach toward NanoBRET Tracers for Analysis of GPCR Ligand Engagement” (Molecules, 2021)

Experiments:
Format in all cases: binding
CXCR1 = target: T1, CXCR1 (Homo sapiens, UniProt P25024); experiment: NanoBRET screen HiBiT-CXCR1 in HEK293
T1 construct: purchased Promega (in-house HiBiT-GPCR construct library, NanoBRET)
T1 sequence (P25024 1-350): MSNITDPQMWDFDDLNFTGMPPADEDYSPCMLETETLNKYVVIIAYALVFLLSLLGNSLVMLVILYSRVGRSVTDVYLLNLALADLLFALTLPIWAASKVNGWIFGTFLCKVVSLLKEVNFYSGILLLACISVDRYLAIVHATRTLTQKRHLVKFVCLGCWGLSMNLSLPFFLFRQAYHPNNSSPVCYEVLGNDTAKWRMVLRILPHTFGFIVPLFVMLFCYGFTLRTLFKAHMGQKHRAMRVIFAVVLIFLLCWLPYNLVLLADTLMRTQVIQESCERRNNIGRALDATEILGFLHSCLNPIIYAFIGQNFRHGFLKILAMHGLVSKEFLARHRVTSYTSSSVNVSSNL
Description: (§1) Each tracer candidate was screened across the entire library of HiBiT-GPCR constructs using NanoBRET as the detection modality. As depicted in Figure 4A, the specificity of interactions was evaluated through decrease in BRET due to competitive displacement of a bound tracer by excess parental compound. Each tracer was analyzed for binding to each HiBiT-GPCR fusion in the absence and in the presence of competing parental compound. Briefly, HEK293 cells were transfected with HiBiT-GPCR constructs diluted into promoterless DNA to reduce expression and maximize translocation to the cell surface. Each tracer candidate was then screened at concentrations of 1 μM and 0.1 μM across cells expressing these fusions. Cells were treated for 1.5 h with tracer either alone or in the presence of 20 μM competing parental compound (i.e., control). BRET was measured upon addition of purified LgBiT and subsequent complementation with HiBiT genetically fused to a GPCR. The specificity of interactions was assessed through a decrease in BRET signal due to competitive displacement of the bound tracer. To further gauge the robustness of these interactions, the fold response over the control (i.e., BRETtracer/BRETcontrol) was calculated. We chose a 1.5-fold response, which translates to ≥7-fold signal over noise as the minimal threshold required to score an interaction as positive. […]. Below we highlight the screening results obtained for our exemplary fluorescent tracers based on Clozapine, Amitriptyline and AZD1283.
(§2) HiBiT-GPCR DNA constructs were diluted in 10 mM Tris pH 8 to a final concentration of 0.01 μg/μL, arrayed in 96-well plates and stored at −20 °C. For transfection, HEK293 cells were suspended in Opti-MEM (without phenol red) supplemented with 2% fetal bovine serum (Seradigm) and 100 units/mL penicillin–streptomycin (Gibco) at a final concentration of 220,000 cells/mL and dispensed into white 96-well plates at 90 μL/well. Subsequent transfections and screens were carried using an Agilent Bravo Automated Liquid Handling Platform. First, the 96-well HiBiT DNA arrays were diluted 25-fold in Opti-MEM (without serum or phenol red) to a final concentration of 0.0004 μg/μL and 20 μL of the diluted DNAs were transferred into new 96-well plates. Next, promoterless carrier DNA (1 μg/μL) was diluted 25-fold (0.04 μg/μL) and then dispensed into the diluted arrays at 20 μL/well. Following brief mixing, Viafect transfection reagent (Promega) diluted 16-fold into Opti-MEM was dispensed into the plates at 40 μL/well. After mixing by pipetting, plates were incubated for 10 min on the pipetting station deck. The DNA-transfection reagent complexes were then added to plates containing cells. To facilitate the screen, 10 μL of DNA-transfection reagent complexes were added in duplicates to the top 4 and bottom 4 rows, resulting in two identical 48-well arrays per plate. Plates with transfected cells were incubated for 18–20 h at 37 °C/5% CO2. A screen of each tracer across the entire library using two different concentrations requires duplicate plates of transfected cells. Depending on the number of tracers being screened, transfections can be scaled up using the same ratios. The next day, for each tracer, four 20× screening solutions in tracer dilution buffer (Promega) were prepared: two duplicates at final concentration of 20 μM and two duplicates at a final concentration of 2 μM. A competing unmodified compound was added to one of each duplicate at a final concentration of 400 μM. The four resulting solutions were diluted 4-fold in Opti-MEM without serum or phenol red to generate 5× solutions (5 µM and 0.5 µM tracer +/− 100 μM competing compound). To screen the library, a BioTek MultiFlo FX liquid dispenser was used to dispense 22.5 µL of tracer solution to the top 4 rows and 22.5 µL tracer + competing compound solution to the 4 bottom rows. Plates were briefly mixed on an orbital shaker and incubated for 1.5 h at room temperature. […]

TACR3 = target: T2, TACR3 (Homo sapiens, UniProt P29371); experiment: NanoBRET screen HiBiT-TACR3 in HEK293
T2 construct: purchased Promega (in-house HiBiT-GPCR construct library, NanoBRET)
T2 sequence (P29371 1-465): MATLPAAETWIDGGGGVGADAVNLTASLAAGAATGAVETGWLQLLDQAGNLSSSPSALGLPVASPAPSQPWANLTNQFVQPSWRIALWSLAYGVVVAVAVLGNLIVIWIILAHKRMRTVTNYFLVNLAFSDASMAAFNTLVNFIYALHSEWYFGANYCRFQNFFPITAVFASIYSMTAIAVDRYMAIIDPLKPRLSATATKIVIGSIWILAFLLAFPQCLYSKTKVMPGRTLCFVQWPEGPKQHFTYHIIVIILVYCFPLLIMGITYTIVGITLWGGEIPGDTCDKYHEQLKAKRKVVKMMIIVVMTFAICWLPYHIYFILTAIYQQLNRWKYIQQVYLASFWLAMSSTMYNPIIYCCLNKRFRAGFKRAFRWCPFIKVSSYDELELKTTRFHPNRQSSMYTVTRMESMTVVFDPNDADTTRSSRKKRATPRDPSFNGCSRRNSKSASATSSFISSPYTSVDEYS
Description: as §1, §2

GALR1 = target: T3, GALR1 (Homo sapiens, UniProt P47211); experiment: NanoBRET screen HiBiT-GALR1 in HEK293
T3 construct: purchased Promega (in-house HiBiT-GPCR construct library, NanoBRET)
T3 sequence (P47211 1-349): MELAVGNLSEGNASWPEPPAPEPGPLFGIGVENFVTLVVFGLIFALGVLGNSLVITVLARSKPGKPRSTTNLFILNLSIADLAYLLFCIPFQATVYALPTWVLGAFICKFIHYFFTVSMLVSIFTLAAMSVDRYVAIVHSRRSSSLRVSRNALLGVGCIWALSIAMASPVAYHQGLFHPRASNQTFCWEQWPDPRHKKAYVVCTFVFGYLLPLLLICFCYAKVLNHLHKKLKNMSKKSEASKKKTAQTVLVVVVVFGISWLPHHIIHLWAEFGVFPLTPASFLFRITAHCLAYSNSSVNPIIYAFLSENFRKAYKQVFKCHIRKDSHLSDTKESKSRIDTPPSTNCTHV
Description: as §1, §2

SMILES | NanoBRET Fold Response (CXCR1; CXCR1, tracer 0.1μM) | NanoBRET Fold Response (CXCR1; CXCR1, tracer 1μM) | NanoBRET Fold Response (TACR3; TACR3, tracer 0.1μM) | NanoBRET Fold Response (TACR3; TACR3, tracer 1μM) | NanoBRET Fold Response (GALR1; GALR1, tracer 0.1μM) | NanoBRET Fold Response (GALR1; GALR1, tracer 1μM) | also measured
O=C(CCOCCOCCOCCOCCNC(=O)CCc1ccc2n1[B-](F)(F)[N+]1=C(c3ccc[nH]3)C=CC1=C2)NCCCN1CCN(C2=Nc3cc(Cl)ccc3Nc3ccccc32)CC1 [Clozapine-a-2-NB590] |  |  |  |  |  |  | NanoBRET Fold Response (CXCR1; CXCR1, 0.1μM tracer): 0.99; NanoBRET Fold Response (CXCR1; CXCR1, 1μM tracer): 0.94; NanoBRET Fold Response (TACR3; TACR3, 0.1μM tracer): 0.99; NanoBRET Fold Response (TACR3; TACR3, 1μM tracer): 1.21; NanoBRET Fold Response (GALR1; GALR1, 0.1μM tracer): 1.05; NanoBRET Fold Response (GALR1; GALR1, 1μM tracer): 1.09
CCCn1c(=O)c2[nH]c(-c3ccc(OCC(=O)NCCNC(=O)CCOCCNC(=O)c4ccc(CNC(=O)CCc5ccc6n5[B-](F)(F)[N+]5=C(c7ccc[nH]7)C=CC5=C6)cc4)cc3)nc2n(CCC)c1=O [XAC-3-NB590] | 1.05 | 0.91 | 1.06 | 1.01 | 1.02 | 1.04 | 
O=C(CCc1ccc2n1[B-](F)(F)[N+]1=C(c3ccc[nH]3)C=CC1=C2)NCc1ccc(C(=O)NCCOCCOCCNCC(O)COc2cccc3ccccc23)cc1 (stereo not drawn) [Propranolol-3-NB590] |  |  |  |  |  |  | NanoBRET Fold Response (CXCR1; CXCR1, 0.1μM): 1.02; NanoBRET Fold Response (CXCR1; CXCR1, 1μM): 1.00; NanoBRET Fold Response (TACR3; TACR3, 0.1μM): 1.06; NanoBRET Fold Response (TACR3; TACR3, 1μM): 0.99; NanoBRET Fold Response (GALR1; GALR1, 0.1μM): 1.02; NanoBRET Fold Response (GALR1; GALR1, 1μM): 0.96
O=C(CCc1ccc2n1[B-](F)(F)[N+]1=C(c3ccc[nH]3)C=CC1=C2)NCc1ccc(C(=O)NCCOCCC(=O)N[C@@H]2CC[C@@]3(O)[C@H]4Cc5ccc(O)c6c5[C@@]3(CCN4CC3CC3)[C@H]2O6)cc1 [Naltrexone-3-NB590] | 0.95 | 0.75 | 1.19 | 0.93 | 0.99 | 0.89 | 
N#CN=C(NCCCOc1cccc(CN2CCCCC2)c1)NCCNC(=O)CCOCCOCCOCCOCCNC(=O)CCc1ccc2n1[B-](F)(F)[N+]1=C(c3ccc[nH]3)C=CC1=C2 [Aminopotentidine-2-NB590] | 1.03 | 0.99 | 1.06 | 1.06 | 1.02 | 0.99 | 
COc1ccc2c(n1)c(CCNC(C)=O)cn2CCNC(=O)CCc1ccc2n1[B-](F)(F)[N+]1=C(c3ccc[nH]3)C=CC1=C2 [Azamelatonin-1-NB590] |  |  |  |  |  |  | NanoBRET Fold Response (CXCR1; 0.1μM tracer): 0.88; NanoBRET Fold Response (CXCR1; 1μM tracer): 1.15; NanoBRET Fold Response (TACR3; 0.1μM tracer): 1.06; NanoBRET Fold Response (TACR3; 1μM tracer): 0.87; NanoBRET Fold Response (GALR1; 0.1μM tracer): 1.06; NanoBRET Fold Response (GALR1; 1μM tracer): 1.00
CC(C)N(CC[C@H](c1ccccc1)c1cc(CCNC(=O)c2ccc(CNC(=O)CCc3ccc4n3[B-](F)(F)[N+]3=C(c5ccc[nH]5)C=CC3=C4)cc2)ccc1O)C(C)C [Tolterodine-BZ-NB590] | 0.98 | 1.11 | 0.98 | 1.06 | 0.95 | 1.07 | 
CN1CCN(C2=Nc3cc(Cl)ccc3Nc3ccc(CNC(=O)CCOCCOCCOCCOCCNC(=O)CCc4ccc5n4[B-](F)(F)[N+]4=C(c6ccc[nH]6)C=CC4=C5)cc32)CC1 [Clozapine-b-2-NB590] |  |  |  |  |  |  | NanoBRET Fold Response (CXCR1; CXCR1, 0.1μM tracer): 1.00; NanoBRET Fold Response (CXCR1; CXCR1, 1μM tracer): 0.99; NanoBRET Fold Response (TACR3; TACR3, 0.1μM tracer): 1.01; NanoBRET Fold Response (TACR3; TACR3, 1μM tracer): 1.05; NanoBRET Fold Response (GALR1; GALR1, 0.1μM tracer): 0.99; NanoBRET Fold Response (GALR1; GALR1, 1μM tracer): 0.99
